Earlier results as cited in patent US5084277A, “Vaginal progesterone tablet” (priority 1990, dated 1992).

Assays:
[1] = not given; remark: listed apart in the source

CC(=O)[C@H]1CC[C@H]2[C@@H]3CCC4=CC(=O)CC[C@]4(C)[C@H]3CC[C@]12C [progesterone, pregn-4-ene-3,20-dione]
Plasma half-life of endogenous progesterone (endogenous): a few minutes
Storage of progesterone in body fat (in vivo): A small amount of progesterone is stored in body fat
Time within which all exogenous progesterone is metabolized (suggested by Myers et al.): ≤ 24 h
Tolerability of parenteral administration ([1]; deep intramuscular injections): often very painful and irritating at the site of injection
Serum levels after oral administration ([1]; in vivo, po): significant but highly variable serum levels
Absorption by the rectal route ([1]; rectal): highly variable
